Patent US6794365B2, “Malonic acid derivatives, processes for their preparation their use and pharmaceutical compositions containing them” (Aventis Pharma Deutschland GmbH, priority 2000, dated 2004)
Where a name gives a salt, the structure may show the parent alone. Read-outs that look alike come from different tables or passages of the source.

B1: antistasin (protein, UniProt P15358 18-136, looked up)
Antistasin: QGPFGPGCEEAGCPEGSACNIITDRCTCSGVRCRMHCPHGFQRSRYGCEFCKCRLEPMKATCDISECPEGMMCSRLTNKCDCKIDINCRKTCPNGLKRDKLGCEYCECRPKRKLIPRLS

Legend:
factor Xa [1] = biological target: T1, factor Xa (Homo sapiens, UniProt P00742); test: In vitro Factor Xa assay (Test 1a), chromogenic substrate S-2765; assay type: biochemical; set-up: purchased Enzyme Research Laboratories, Inc; South Bend, Ind; conditions: Factor Xa inhibitory activity; Ki from IC50 corrected for substrate competition; 25° C., pH 7.8; read-out: Ki (FXa)
T1 sequence (P00742 235-488 limits assumed): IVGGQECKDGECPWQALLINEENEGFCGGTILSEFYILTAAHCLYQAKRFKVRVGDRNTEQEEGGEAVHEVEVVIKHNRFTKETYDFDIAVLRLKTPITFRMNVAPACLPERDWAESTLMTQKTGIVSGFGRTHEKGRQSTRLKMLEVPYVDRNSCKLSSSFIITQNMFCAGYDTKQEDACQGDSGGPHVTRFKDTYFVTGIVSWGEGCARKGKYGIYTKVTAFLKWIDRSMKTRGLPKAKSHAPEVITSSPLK
T1 sequence (P00742 41-179 partner limits assumed): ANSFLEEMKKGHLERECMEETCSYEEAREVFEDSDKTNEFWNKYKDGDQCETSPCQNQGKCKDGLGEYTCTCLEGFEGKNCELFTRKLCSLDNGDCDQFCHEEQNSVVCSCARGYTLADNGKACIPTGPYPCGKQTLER
Experimental: Purified enzymes are used in chromogenic assays. To determine the inhibition constant, the IC50 value is corrected for competition with substrate using the formula: […] where Km is the Michaelis-Menten-constant (Y.-C. Chen and W. H. Prusoff, Biochem. Pharmacol. 22: […] (1973), which is incorporated herein by reference). TBS-PEG buffer (50 mM Tris-Cl, pH 7.8, 200 mM NaCl, 0.05% (w/v) PEG-8000, 0.02% (w/v) NaN3) is used for this assay. The IC50 is determined by combining in appropriate wells of a Costar half-area microtiter plate 25 μl human factor Xa (Enzyme Research Laboratories, Inc.; South Bend, Ind.) in TBS-PEG; 40 μl 10% (v/v) DMSO in TBS-PEG (uninhibited control) or various concentrations of the compound to be tested diluted in 10% (v/v) DMSO in TBS-PEG; and substrate S-2765 (N-benzyloxycarbonyl-[…]-nitroanilide; Kabi Pharmacia, Inc.; Franklin Ohio) in TBS-PEG. […] The initial velocity of chromogenic substrate hydrolysis is measured by the change in absorbance at 405 nm using a Bio-tek Instruments kinetic plate reader ([…] 25° C. during the linear portion of the time course (usually 1.5 min after addition of substrate).

thrombin and factor Xa = conditions: rate of inactivation thrombin vs factor Xa; cited from earlier work
[2] = TAP at less than about two fold aPTT prolongation; heparin at doses causing five fold aPTT increase; cited from earlier work
factor Xa [3] = biological target: T1, factor Xa; conditions: cited from earlier work
[4] = recombinantly-produced inhibitor; cited from earlier work
[5] = subcutaneous; cited from earlier work

Molecule | Ki (factor Xa [1]) [nM] | thrombin inactivated faster than factor Xa (thrombin and factor Xa) | prevention of high-shear arterial thrombosis and reduced flow in graft [2] | Ki (factor Xa [3]) [nM] | prevention of clotting [4] | treatment effect in DIC model [5]
CN(Cc1ccccc1)C(=O)C(Cc1ccc(C(=N)N)cc1)C(=O)N[C@H](C(=O)N[C@@H](CCCNC(=N)N)C(N)=O)C1CCCCC1 (stereo partly drawn) [Example 144, N-Benzyl-2-(4-carbamimidoyl-benzyl)-N′-[(S)-(1-(S)-carbamoyl-4-guanidino-butylcarbamoyl)-cyclohexyl-methyl]-N-methyl-malonamide trifluoroacetic acid salt] | 11 | – | – | – | – | –
heparin [reference compound] | – | approximately 100 times | did not prevent thrombosis | – | – | –
tick anticoagulant peptide (YNRLCIKPRDWIDECDSNEGGERAYFRNGKGGCDSFWICPEDHTGADYYSSYRDCFNACI; UniProt P17726 1-60, looked up) [TAP] | – | – | effectively prevents | ~0.5 | prevent clotting | –
B1 | – | – | – | 0.05 | prevent clotting | effective treatment
